Assay results published in patent US20220324860A1, “SUBSTITUTED PYRAZOLO[4,3-b]PYRIDINES AND THEIR USE AS GLUN2B RECEPTOR MODULATORS” (JANSSEN PHARMACEUTICA NV, priority 2019, published 2022).

experiment: Liver microsomal stability (extraction ratio); assay type: in vitro ADME; conditions: test compound 1 μM; 0.5 mg/mL liver microsomes, NADPH 1 mM, 37° C.; predicted hepatic clearance (well-stirred model) divided by species blood flow; species not given
Method: Protocol for Liver Microsomal Stability (Extraction Ratio)
Liver Microsomal Stability. Microsomal stability studies (Chrovian et al, “1H-Pyrrolo[3,2-b]pyridine GluN2B-Selective Negative Allosteric Modulators”. ACS Med Chem Lett. 2019 Jan. 10; 10(3):261-266) were conducted on a Biomek® FX Robotic Liquid Handling Workstation (Beckman Coulter, Brea, Calif.), which consists of a 96-channel pipette head, a 12-position workstation deck, and a plate incubator. Test compounds (1 μM) were spiked in a reaction mix consisting of 100 mM potassium phosphate buffer (pH 7.4), 3 mM MgCl2, and 0.5 mg/mL liver microsomes from mouse, rat, and human (BD Gentest). The reaction was brought to 37° C. and initiated by adding NADPH to a final concentration of 1 mM. After mixing on the plate deck, 50 μL aliquots were excised from the reaction plate at 0, 5, 10, 20, 40, and 60 min and quenched with four volumes of acetonitrile spiked with […] of the internal standard phenytoin. Quenched plates were centrifuged at 5700 rpm for 10 min at 4° C., and supernatant was diluted 1:3 in water before LC/MS/MS analysis. The compound half-lives were derived from plots of the ln of percent remaining compound over time to determine the intrinsic clearance. The predicted hepatic clearance was derived from the intrinsic clearance value using equations from the well-stirred model (Current Drug Metabolism, 2008, 9, 940-951), where no correction was made plasma protein binding and the blood to plasma concentration ratio was assumed to be one. The extraction ratio (ER) was calculated by dividing the predicted hepatic clearance by species blood flow (Q), where Q is 90, 55, and 21.7 mL/min/kg for mouse, rat and human, respectively.

Compound	Extraction Ratio @ 1 μM
CCN1CC(Cn2ncc3ncc(-c4ccc(F)c(C(F)F)c4)cc32)OC1=O (racemic) [Example 131, (RS)-5-[[6-[3-(Difluoromethyl)-4-fluoro-phenyl]pyrazolo[4,3-b]pyridin-1-yl]methyl]-3-ethyl-oxazolidin-2-one]	0.58
CC[S+]([O-])Cn1ncc2ncc(-c3ccc(F)c(C(F)F)c3)cc21 (single isomer, unassigned) [Example 85, (R*)-6-(3-(Difluoromethyl)-4-fluorophenyl)-1-((ethylsulfinyl)methyl)-1H-pyrazolo[4,3-b]pyridine]	0.46
CC(=O)Cn1ncc2ncc(-c3ccc(F)c(OC(F)F)c3)cc21 [Example 25, 1-[6-[3-(Difluoromethoxy)-4-fluoro-phenyl]pyrazolo[4,3-b]pyridin-1-yl]propan-2-one]	0.64
CCC(=O)Cn1nc(C)c2ncc(-c3ccc(F)c(C(F)F)c3)cc21 [Example 36, 1-(6-(3-(Difluoromethyl)-4-fluorophenyl)-3-methyl-1H-pyrazolo[4,3-b]pyridin-1-yl)butan-2-one]	0.72
O=C(Cn1ncc2ncc(-c3cccc(C(F)F)c3)cc21)C1CC1 [Example 61, 1-Cyclopropyl-2-[6-[3-(difluoromethyl)phenyl]pyrazolo[4,3-b]pyridin-1-yl]ethanone]	0.43
Cc1c(F)ccc(-c2cnc3cnn(CC(=O)C4CC4)c3c2)c1C [Example 78, 1-Cyclopropyl-2-[6-(4-fluoro-2,3-dimethyl-phenyl)pyrazolo[4,3-b]pyridin-1-yl]ethanone]	0.52

Continued, values first:

Extraction Ratio @ 1 μM	Compound
0.50	CC[S+]([O-])Cn1ncc2ncc(-c3cccc(C(F)(F)F)c3F)cc21 (racemic) [Example 86, (RS)-1-(Ethylsulfinylmethyl)-6-[2-fluoro-3-(trifluoromethyl)phenyl]pyrazolo[4,3-b]pyridine]
0.66	CCC(=O)Cn1ncc2ncc(-c3ccc(F)c(C(F)F)c3)cc21 [Example 4, 1-[6-[3-(Difluoromethyl)-4-fluoro-phenyl]pyrazolo[4,3-b]pyridin-1-yl]butan-2-one]
0.61	CCC(=O)Cn1ncc2ncc(-c3cccc(C(F)(F)F)c3F)cc21 [Example 38, 1-[6-[2-Fluoro-3-(trifluoromethyl)phenyl]pyrazolo[4,3-b]pyridin-1-yl]butan-2-one]
0.63	CCC(=O)Cn1ncc2ncc(-c3cc(F)c(F)c(F)c3)cc21 [Example 42, 1-[6-(3,4,5-Trifluorophenyl)pyrazolo[4,3-b]pyridin-1-yl]butan-2-one]
